Assay results as given in PubChem BioAssay AID328 (DTP/NCI, 2004).
Where “and” joins values, the source holds several entries; their conditions need not be identical. Identical values can stand only once. Toxic doses and inconclusive results are not listed. The calls were made as follows: active = survival T/C of 150% or more; inactive = T/C below 125% in these data. Starred links: 1 amine or outer side, 2 acyl side, 3 side chain; linkers in the order of their positions; H or OH if unused. Positions of bridges follow the written chain, without caps; N, C: chain ends. Non-standard residues stand in square brackets, D forms with d. Residues, ends and D or L forms follow the SMILES beside them. Chains are numbered I, II in the order given. Actinocin(9to1) = Cc1c2oc3c(C)ccc(C(=O)[*:1])c3nc-2c(C(=O)[*:2])c(N)c1=O; NMeV = CN[CH](C(=O)O)C(C)C; Sar = CNCC(=O)O

Test system: BDF1 mice, P388 leukemia ip, median survival T/C
Test: NCI In Vivo Anticancer Drug Screen. Data for tumor model P388 Leukemia (intraperitoneal) in B6D2F1 (BDF1) mice
Conditions: endpoint: median survival time, higher = longer survival
Procedure, shortened: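 Mice carrying the transplantable tumour receive compound or vehicle. Survival is followed in each arm, and the treated measure is divided by the vehicle measure.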

[1] = dose: 100.0 mg/kg/injection, schedule: Q04DX003 (ip), vehicle: saline with Tween-80
[2] = dose: 200.0 mg/kg/injection, schedule: Q04DX003 (ip), vehicle: saline with Tween-80
[3] = dose: 400.0 mg/kg/injection, schedule: Q04DX003 (ip), vehicle: saline with Tween-80
[4] = dose: 50.0 mg/kg/injection, schedule: Q01DX009 (ip), vehicle: saline with Tween-80
[5] = dose: 100.0 mg/kg/injection, schedule: Q01DX009 (ip), vehicle: saline with Tween-80
[6] = dose: 200.0 mg/kg/injection, schedule: Q01DX009 (ip), vehicle: saline with Tween-80

Measured: T/C

CN(C)c1ccc(/C=C2\NC(=O)NC2=O)cc1
inactive: dose: 100.0 mg/kg/injection, schedule: Q01DX001 (ip), vehicle: saline with Tween-80 103 % of control | dose: 200.0 mg/kg/injection, schedule: Q01DX001 (ip), vehicle: saline with Tween-80 97 % of control | dose: 400.0 mg/kg/injection, schedule: Q01DX001 (ip), vehicle: saline with Tween-80 95 % of control

CCOC(=O)C(CSCSC)NC(=O)/C=C/c1cccnc1 (stereo not drawn)
inactive: dose: 100.0 mg/kg/injection, schedule: Q01DX009 (ip), vehicle: saline 96 % of control | [1] 91 % of control | dose: 200.0 mg/kg/injection, schedule: Q01DX009 (ip), vehicle: saline 106 % of control | [2] 91 % of control | dose: 400.0 mg/kg/injection, schedule: Q01DX009 (ip), vehicle: saline 104 % of control | [3] 120 % of control

Brc1cnc[nH]1
inactive: dose: 25.0 mg/kg/injection, schedule: Q01DX009 (ip), vehicle: water 103 % of control | dose: 25.0 mg/kg/injection, schedule: Q04DX003 (ip), vehicle: water 106 % of control | dose: 50.0 mg/kg/injection, schedule: Q01DX009 (ip), vehicle: water 91 % of control | dose: 50.0 mg/kg/injection, schedule: Q04DX003 (ip), vehicle: water 94 % of control and 106 % of control | dose: 100.0 mg/kg/injection, schedule: Q01DX009 (ip), vehicle: water 87 % of control | dose: 100.0 mg/kg/injection, schedule: Q04DX003 (ip), vehicle: water 93 % of control (2×) and 110 % of control | dose: 200.0 mg/kg/injection, schedule: Q01DX009 (ip), vehicle: water 100 % of control | dose: 200.0 mg/kg/injection, schedule: Q04DX003 (ip), vehicle: water 89 % of control and 97 % of control | dose: 300.0 mg/kg/injection, schedule: Q04DX003 (ip), vehicle: water 98 % of control | dose: 400.0 mg/kg/injection, schedule: Q04DX003 (ip), vehicle: water 94 % of control and 99 % of control and 103 % of control

CC1CN1P(=S)(N1CC1C)N1CC1C (stereo not drawn)
inactive: dose: 1.25 mg/kg/injection, schedule: Q01DX010 (ip), vehicle: saline 104 % of control | dose: 2.5 mg/kg/injection, schedule: Q01DX010 (ip), vehicle: saline 104 % of control | dose: 5.0 mg/kg/injection, schedule: Q01DX010 (ip), vehicle: saline 104 % of control | dose: 10.0 mg/kg/injection, schedule: Q01DX010 (ip), vehicle: saline 104 % of control

ClC1(Cl)Cc2ccccc21
inactive: [1] 109 % of control | dose: 266.0 mg/kg/injection, schedule: Q04DX003 (ip), vehicle: saline with Tween-80 108 % of control | [3] 108 % of control | dose: 600.0 mg/kg/injection, schedule: Q04DX003 (ip), vehicle: saline with Tween-80 120 % of control

COc1cc(C2=CC(OC)(OC)C=C(C(C)(C)C)C2=O)c(O)c(C(C)(C)C)c1
inactive: [4] 105 % of control | [5] 108 % of control | [6] 112 % of control

CC(=O)OCC(=O)[C@@]1(O)CC[C@H]2[C@@H]3CCC4=CC(=O)C=C[C@]4(C)[C@@]3(F)[C@@H](O)C[C@@]21C
inactive: dose: 12.5 mg/kg/injection, schedule: Q01DX009 (ip), vehicle: saline sonified 104 % of control | dose: 25.0 mg/kg/injection, schedule: Q01DX009 (ip), vehicle: saline sonified 109 % of control | dose: 50.0 mg/kg/injection, schedule: Q01DX009 (ip), vehicle: saline sonified 100 % of control

Cc1c2oc3c(C)ccc(C(=O)NC4C(=O)NC(C(C)C)C(=O)N(C)CC(=O)N(C)CC(=O)N(C)C(C(C)C)C(=O)OC4C)c3nc-2c(C(=O)NC2C(=O)NC(C(C)C)C(=O)N(C)CC(=O)N(C)CC(=O)N(C)C(C(C)C)C(=O)OC2C)c(N)c1=O (stereo not drawn) (I: TV[Sar][Sar][NMeV] / II: TV[Sar][Sar][NMeV]; ester I:1-I:C, II:1-II:C; linker I:N-II:N via Actinocin(9to1); configuration not given here)
active: dose: 125.0 micrograms/kg/injection, schedule: Q01DX009 (ip), vehicle: saline + alcohol 190 % of control | dose: 250.0 micrograms/kg/injection, schedule: Q01DX009 (ip), vehicle: saline + alcohol 233 % of control | dose: 500.0 micrograms/kg/injection, schedule: Q01DX009 (ip), vehicle: saline + alcohol 239 % of control | dose: 750.0 micrograms/kg/injection, schedule: Q04DX003 (ip), vehicle: saline + alcohol 218 % of control | dose: 1500.0 micrograms/kg/injection, schedule: Q04DX003 (ip), vehicle: saline + alcohol 239 % of control and 166 % of control | dose: 3000.0 micrograms/kg/injection, schedule: Q04DX003 (ip), vehicle: saline + alcohol 175 % of control

CC1CCCC/C1=N/NC(=O)c1ccccc1 (stereo not drawn)
inactive: [4] 87 % of control | [5] 91 % of control | [1] 95 % of control

CCOC(=O)/C(C#N)=C/N(C)Cc1ccccc1
inactive: [4] 108 % of control | [5] 105 % of control

CC12CCC(C)(O)C(CC3=C1CCc1ccccc13)C2=O (stereo not drawn)
inactive: dose: 75.0 mg/kg/injection, schedule: Q04DX003 (ip), vehicle: saline 100 % of control | dose: 150.0 mg/kg/injection, schedule: Q04DX003 (ip), vehicle: saline 91 % of control | dose: 300.0 mg/kg/injection, schedule: Q04DX003 (ip), vehicle: saline 95 % of control

CCCCC(CC)COP(OCC(CC)CCCC)OCC(CC)CCCC (stereo not drawn)
inactive: [1] 109 % of control | [2] 100 % of control | [3] 118 % of control

CCCC(=O)OCC1OC(n2cnc3c(=S)nc(N)[nH]c32)C(OC(=O)CCC)C1OC(=O)CCC (stereo not drawn)
active: dose: 16.5 mg/kg/injection, schedule: Q04DX003 (ip), vehicle: saline with Tween-80 177 % of control | dose: 25.0 mg/kg/injection, schedule: Q04DX003 (ip), vehicle: saline with Tween-80 154 % of control | dose: 37.5 mg/kg/injection, schedule: Q04DX003 (ip), vehicle: saline with Tween-80 161 % of control

CSc1ncc2ncn(C3OC(CO)C(O)C3O)c2n1 (stereo not drawn)
inactive: dose: 100.0 mg/kg/injection, schedule: Q01DX001 (ip), vehicle: Klucel (hydroxypropylcellulose) (HPC) 86 % of control | dose: 100.0 mg/kg/injection, schedule: Q01DX009 (ip), vehicle: Klucel (hydroxypropylcellulose) (HPC) 110 % of control | [5] 86 % of control | dose: 100.0 mg/kg/injection, schedule: Q04DX003 (ip), vehicle: Klucel (hydroxypropylcellulose) (HPC) 95 % of control | [1] 95 % of control | dose: 200.0 mg/kg/injection, schedule: Q01DX001 (ip), vehicle: Klucel (hydroxypropylcellulose) (HPC) 100 % of control | dose: 200.0 mg/kg/injection, schedule: Q01DX009 (ip), vehicle: Klucel (hydroxypropylcellulose) (HPC) 105 % of control | [6] 95 % of control | dose: 200.0 mg/kg/injection, schedule: Q04DX003 (ip), vehicle: Klucel (hydroxypropylcellulose) (HPC) 100 % of control | [2] 95 % of control | dose: 400.0 mg/kg/injection, schedule: Q01DX001 (ip), vehicle: Klucel (hydroxypropylcellulose) (HPC) 109 % of control | dose: 400.0 mg/kg/injection, schedule: Q01DX009 (ip), vehicle: Klucel (hydroxypropylcellulose) (HPC) 105 % of control | dose: 400.0 mg/kg/injection, schedule: Q01DX009 (ip), vehicle: saline with Tween-80 86 % of control | dose: 400.0 mg/kg/injection, schedule: Q04DX003 (ip), vehicle: Klucel (hydroxypropylcellulose) (HPC) 100 % of control | [3] 100 % of control
